# Experimental data reported in patent US9181575B2 (priority 2008, dated 2015).
# System: Legionella pneumophila
# Assay type: cell-based
# Settings: after THPS 15 mg/L, 60 min; 0.1% pyruvate and/or 1% glutamic acid in BCYE
smiles,measurement,value
N[C@@H](CCC(=O)O)C(=O)O [glutamic acid],ratio of number of culturable Legionella on supplemented medium to standard medium (BCYE),0.2
CC(=O)C(=O)O [pyruvate],ratio of number of culturable Legionella on supplemented medium to standard medium (BCYE),45
